According to US10526352B2, “Tricyclic benzoxaborole compounds and uses thereof” (GlaxoSmithKline Intellectual Property (No.2) Limited, priority 2013, dated 2020):
In brackets after ≈: the same amount, converted by molar mass. Like-named read-outs stand apart in the source and are kept apart here.

Experiments:
A. baumannii ATCC 17978 = experiment: General antimicrobial activity assay (CLSI broth microdilution); format: cell-based, Acinetobacter baumannii
Experimental: (§1) Whole-cell antimicrobial activity was determined by broth microdilution using the Clinical and Laboratory Standards Institute (CLSI) recommended procedure, Document M7-A7, “Methods for Dilution Susceptibility Tests for Bacteria that Grow Aerobically”.

P. aeruginosa PA01 = experiment: as above; format: cell-based, Pseudomonas aeruginosa
Experimental: as §1

E. coli K12 = experiment: as above; format: cell-based, Escherichia coli
Experimental: as §1

E. coli K12 tolC::Tn10 = experiment: as above; format: cell-based, Escherichia coli
Experimental: as §1

Mtb LeuRS = Mtb LeuRS (Mycobacterium tuberculosis, UniProt P9WFV1); experiment: biochemical; design: species or system M. tuberculosis
[1] = test system: M. tuberculosis standard strain Mtb H37Rv; experiment: MIC determination against mycobacteria (resazurin, Middlebrook 7H9); format: cell-based, Mycobacterium tuberculosis
[2] = test system: M. tuberculosis clinical isolates; experiment: MIC against clinical strains (BACTEC MGIT 960 System); format: cell-based; conditions: Mycobacterium tuberculosis
Human cyto LeuRS = Human cyto LeuRS (Homo sapiens, UniProt Q9P2J5); experiment: LeuRS aminoacylation assay, IC50 determination; format: biochemical
[3] = Mycobacterium tuberculosis, H37RV; read-out: Mtb H37Rv MIC (B)

Chain of Human cyto LeuRS (Q9P2J5 whole entry): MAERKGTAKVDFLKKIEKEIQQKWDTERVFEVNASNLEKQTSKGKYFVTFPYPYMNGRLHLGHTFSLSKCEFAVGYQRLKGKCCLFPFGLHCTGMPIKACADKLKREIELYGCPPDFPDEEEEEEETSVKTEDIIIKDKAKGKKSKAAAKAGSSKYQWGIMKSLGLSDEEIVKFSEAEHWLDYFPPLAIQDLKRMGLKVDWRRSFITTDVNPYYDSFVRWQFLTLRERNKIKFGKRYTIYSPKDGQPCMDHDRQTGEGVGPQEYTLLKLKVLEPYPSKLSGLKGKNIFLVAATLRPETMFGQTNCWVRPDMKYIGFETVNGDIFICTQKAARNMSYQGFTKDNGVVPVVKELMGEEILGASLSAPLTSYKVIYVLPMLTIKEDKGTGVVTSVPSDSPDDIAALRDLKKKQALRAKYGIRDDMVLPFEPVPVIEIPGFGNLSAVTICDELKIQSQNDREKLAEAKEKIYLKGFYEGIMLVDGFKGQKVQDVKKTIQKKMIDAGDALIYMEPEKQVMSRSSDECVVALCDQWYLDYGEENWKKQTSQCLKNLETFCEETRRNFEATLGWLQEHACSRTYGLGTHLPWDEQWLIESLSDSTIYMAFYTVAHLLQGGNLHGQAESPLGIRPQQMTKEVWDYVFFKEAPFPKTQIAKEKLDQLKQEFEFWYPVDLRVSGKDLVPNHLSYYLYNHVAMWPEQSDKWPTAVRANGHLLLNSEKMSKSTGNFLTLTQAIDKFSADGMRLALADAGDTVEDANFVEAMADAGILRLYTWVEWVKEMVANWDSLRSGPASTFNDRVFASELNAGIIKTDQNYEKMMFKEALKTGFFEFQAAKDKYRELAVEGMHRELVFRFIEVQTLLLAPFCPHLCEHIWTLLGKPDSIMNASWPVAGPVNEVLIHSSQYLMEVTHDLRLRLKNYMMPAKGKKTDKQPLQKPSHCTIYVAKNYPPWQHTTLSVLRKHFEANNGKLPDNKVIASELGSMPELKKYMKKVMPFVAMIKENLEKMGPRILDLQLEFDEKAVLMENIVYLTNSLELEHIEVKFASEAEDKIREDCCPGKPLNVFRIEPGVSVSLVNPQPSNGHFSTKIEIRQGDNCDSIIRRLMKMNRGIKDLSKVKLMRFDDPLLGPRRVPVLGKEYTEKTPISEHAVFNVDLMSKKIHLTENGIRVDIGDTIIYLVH
Chain of Mtb LeuRS (P9WFV1 whole entry): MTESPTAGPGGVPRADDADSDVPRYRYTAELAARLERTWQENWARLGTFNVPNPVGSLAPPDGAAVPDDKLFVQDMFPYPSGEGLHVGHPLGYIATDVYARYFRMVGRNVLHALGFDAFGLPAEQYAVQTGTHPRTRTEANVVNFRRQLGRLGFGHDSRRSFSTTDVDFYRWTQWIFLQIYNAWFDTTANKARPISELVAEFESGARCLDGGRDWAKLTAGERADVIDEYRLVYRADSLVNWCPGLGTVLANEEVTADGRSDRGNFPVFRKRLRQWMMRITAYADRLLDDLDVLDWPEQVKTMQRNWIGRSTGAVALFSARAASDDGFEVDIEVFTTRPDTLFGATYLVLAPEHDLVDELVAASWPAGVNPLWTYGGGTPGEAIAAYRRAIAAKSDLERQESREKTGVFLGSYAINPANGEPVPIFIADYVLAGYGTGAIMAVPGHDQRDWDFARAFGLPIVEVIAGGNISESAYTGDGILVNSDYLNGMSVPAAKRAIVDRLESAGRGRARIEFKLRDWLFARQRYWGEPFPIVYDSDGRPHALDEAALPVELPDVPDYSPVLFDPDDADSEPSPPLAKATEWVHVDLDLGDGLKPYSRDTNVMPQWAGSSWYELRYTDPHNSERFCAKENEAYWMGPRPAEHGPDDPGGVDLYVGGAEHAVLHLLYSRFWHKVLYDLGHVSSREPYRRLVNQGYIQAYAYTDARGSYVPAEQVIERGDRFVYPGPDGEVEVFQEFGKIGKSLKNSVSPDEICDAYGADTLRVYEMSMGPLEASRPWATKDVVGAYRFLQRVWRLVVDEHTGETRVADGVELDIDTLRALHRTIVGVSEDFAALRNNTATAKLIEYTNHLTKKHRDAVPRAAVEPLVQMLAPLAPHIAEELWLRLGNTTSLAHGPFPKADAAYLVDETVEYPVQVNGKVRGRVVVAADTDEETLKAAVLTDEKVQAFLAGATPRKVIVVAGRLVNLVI

`Cl.NC[C@H]1OB2OCCOc3ccc(Cl)c1c32` [Example 4, (S)-(3-chloro-7,8-dihydro-2H-1,6,9-trioxa-9a-borabenzo[cd]azulen-2-yl)methanamine hydrochloride] was tested, and the “MIC: A. baumannii ATCC 17978” value (A. baumannii ATCC 17978) was 64 mg/L, the “MIC: P. aeruginosa PA01” value (P. aeruginosa PA01) was 64 mg/L and the “MIC: E. coli K12” value (E. coli K12) was 64 mg/L. The “MIC: E. coli K12 tolC::Tn10” value (E. coli K12 tolC::Tn10) was 64 mg/L, the IC50 (Mtb LeuRS) was 0.148 µM and the MIC ([1]; Mycobacterium tuberculosis, H37RV, read-out: Mtb H37Rv MIC (B)) was < 0.1 µM. The MIC ([1]; hydrochloride; read-out: Mtb H37Rv MIC (B)) was 0.08 µM, the “HepG2 cell 48 h Tox50 (A)” value (HepG2 cells) was >1000 µM and the MIC ([2]; read-out: measured MIC (breakdown), for 1 strain (EXAMPLE 2 and EXAMPLE 4), highest MIC) was 0.16 µM. For the same compound, the MIC ([2]; read-out: measured MIC (breakdown), for 1 strain of 40 clinical isolates (lowest MIC, EXAMPLE 4)) was ≤ 0.2 µM, the MIC ([2]; read-out: measured MIC (breakdown), for 40 strains (EXAMPLE 2 and EXAMPLE 4)) was 0.08 µM and the MIC ([2]; strain 3, sensitive clinical isolate) was 0.04 µM. The MIC ([2]; strain 52, sensitive clinical isolate) was 0.08 µM, the MIC ([2]; strain 137, sensitive clinical isolate) was 0.08 µM and the MIC ([2]; strain 161, sensitive clinical isolate) was 0.31 µM. The MIC ([2]; strain 169, sensitive clinical isolate) was 0.08 µM, the MIC ([2]; strain 192, sensitive clinical isolate) was 0.08 µM and the MIC ([2]; strain 199, sensitive clinical isolate) was 0.08 µM. For the same compound, the MIC ([2]; strain 206, sensitive clinical isolate) was 0.08 µM, the MIC ([2]; strain 207, sensitive clinical isolate) was 0.08 µM and the MIC ([2]; strain 208, sensitive clinical isolate) was 0.08 µM. It also gave an MIC ([2]; strain 223, sensitive clinical isolate) of 0.08 µM, an MIC ([2]; strain 231, sensitive clinical isolate) of 0.08 µM and an MIC ([2]; strain 237, sensitive clinical isolate) of 0.08 µM. The MIC ([2]; strain 247, sensitive clinical isolate) was 0.08 µM, the MIC ([2]; strain 248, sensitive clinical isolate) was 0.08 µM and the MIC ([2]; strain 249, sensitive clinical isolate) was 0.08 µM. The MIC ([2]; strain 250, sensitive clinical isolate) was 0.08 µM, the MIC ([2]; strain 253, sensitive clinical isolate) was 0.08 µM and the MIC ([2]; strain 255, sensitive clinical isolate) was 0.08 µM. It also gave an MIC ([2]; strain 256, sensitive clinical isolate) of 0.08 µM, an MIC ([2]; strain 257, sensitive clinical isolate) of 0.08 µM and an MIC ([2]; strain 261, sensitive clinical isolate) of 0.08 µM. For the same compound, the MIC ([2]; strain 265, sensitive clinical isolate) was 0.08 µM, the MIC ([2]; strain 267, sensitive clinical isolate) was 0.08 µM and the MIC ([2]; strain 269, sensitive clinical isolate) was 0.08 µM. For the same compound, the MIC ([2]; strain 274, sensitive clinical isolate) was 0.16 µM, the MIC ([2]; strain 281, sensitive clinical isolate) was 0.08 µM and the MIC ([2]; strain 292, sensitive clinical isolate) was 0.08 µM. The MIC ([2]; strain 296, sensitive clinical isolate) was 0.08 µM, the MIC ([2]; strain 311, sensitive clinical isolate) was 0.08 µM and the MIC ([2]; strain 314, sensitive clinical isolate) was 0.08 µM. It also gave an MIC ([2]; strain 316, sensitive clinical isolate) of 0.08 µM, an MIC ([2]; strain 317, sensitive clinical isolate) of 0.08 µM and an MIC ([2]; strain 322, sensitive clinical isolate) of 0.08 µM. The MIC ([2]; strain 323, sensitive clinical isolate) was 0.08 µM, the MIC ([2]; strain 324, sensitive clinical isolate) was 0.08 µM and the MIC ([2]; strain 325, sensitive clinical isolate) was 0.16 µM. It also gave an MIC ([2]; strain 326, sensitive clinical isolate) of 0.08 µM, an MIC ([2]; strain 327, sensitive clinical isolate) of 0.08 µM and an MIC ([2]; strain 328, sensitive clinical isolate) of 0.08 µM. It also gave an MIC ([2]; strain 329, sensitive clinical isolate) of 0.08 µM, an MIC ([2]; strain 332, sensitive clinical isolate) of 0.08 µM and an MIC ([2]; strain 333, sensitive clinical isolate) of 0.08 µM. It also gave an MIC ([2]; strain 337, sensitive clinical isolate) of 0.08 µM, an MIC ([2]; strain 356, sensitive clinical isolate) of 0.04 µM and an MIC ([2]; strain 357, sensitive clinical isolate) of 0.04 µM. For the same compound, the MIC ([2]; strain 358, sensitive clinical isolate) was 0.08 µM, the MIC ([2]; strain 361, sensitive clinical isolate) was 0.08 µM and the MIC ([2]; strain 362, sensitive clinical isolate) was 0.04 µM. For the same compound, the MIC ([2]; strain 370, sensitive clinical isolate) was 0.04 µM, the MIC ([2]; strain 371, sensitive clinical isolate) was 0.08 µM and the MIC ([2]; strain 374, sensitive clinical isolate) was 0.08 µM. It also gave an MIC ([2]; strain 385, sensitive clinical isolate) of 0.08 µM, an MIC ([2]; strain 391, sensitive clinical isolate) of 0.08 µM and an MIC ([2]; strain 424, sensitive clinical isolate) of 0.08 µM. For the same compound, the MIC ([2]; strain 440, sensitive clinical isolate) was 0.08 µM, the MIC ([2]; strain 442, sensitive clinical isolate) was 0.08 µM and the MIC ([2]; strain 457, sensitive clinical isolate) was 0.04 µM. It also gave an MIC ([2]; strain 460, sensitive clinical isolate) of 0.08 µM, an MIC ([2]; strain 481, sensitive clinical isolate) of 0.08 µM and an MIC ([2]; strain 705, sensitive clinical isolate) of 0.16 µM. For the same compound, the MIC ([2]; strain 716, sensitive clinical isolate) was 0.08 µM, the MIC ([2]; strain 729, sensitive clinical isolate) was 0.08 µM and the MIC ([2]; strain 730, sensitive clinical isolate) was 0.08 µM. It also gave an MIC ([2]; strain 731, sensitive clinical isolate) of 0.08 µM, an MIC ([2]; strain 733, sensitive clinical isolate) of 0.08 µM and an MIC ([2]; strain 734, sensitive clinical isolate) of 0.08 µM. For the same compound, the MIC ([2]; strain 736, sensitive clinical isolate) was 0.08 µM and the MIC ([2]; strain 737, sensitive clinical isolate) was 0.08 µM.
`CCOc1ccc(Br)c2c1B(O)O[C@@H]2CN` [Example C4-Br, reference compound] was tested, and the “MIC: A. baumannii ATCC 17978” value (A. baumannii ATCC 17978) was 64 mg/L (≈ 224 µM), the “MIC: P. aeruginosa PA01” value (P. aeruginosa PA01) was 64 mg/L (≈ 224 µM) and the “MIC: E. coli K12” value (E. coli K12) was 64 mg/L (≈ 224 µM). The “MIC: E. coli K12 tolC::Tn10” value (E. coli K12 tolC::Tn10) was 64 mg/L (≈ 224 µM), the IC50 (Human cyto LeuRS) was 67 µM and the MIC [1, 3] was 0.1 µM (≈ 0.0286 µg/mL). The “Selectivity Index (A/B)” value (HepG2 cells) was 320 and the “HepG2 cell 48 h Tox50 (A)” value (HepG2 cells) was 32 µM.
`CCOc1ccc(Cl)c2c1B(O)O[C@@H]2CN` [Example C6-Cl, reference compound] was tested, and the “MIC: A. baumannii ATCC 17978” value (A. baumannii ATCC 17978) was 64 mg/L (≈ 265 µM), the “MIC: P. aeruginosa PA01” value (P. aeruginosa PA01) was 64 mg/L (≈ 265 µM) and the “MIC: E. coli K12” value (E. coli K12) was 64 mg/L (≈ 265 µM). The “MIC: E. coli K12 tolC::Tn10” value (E. coli K12 tolC::Tn10) was 64 mg/L (≈ 265 µM), the IC50 (Human cyto LeuRS) was 38.8 µM and the MIC [1, 3] was 0.1 µM (≈ 0.0241 µg/mL). For the same compound, the “Selectivity Index (A/B)” value (HepG2 cells) was 363 and the “HepG2 cell 48 h Tox50 (A)” value (HepG2 cells) was 36.3 µM.
